Experimental data: ChEMBL document CHEMBL5727863, “Substituted imidazo[1,2-A]pyridin-2-ylamine compounds, and pharmaceutical compositions and methods of use thereof” (2020)

Experiments:
[1] = molecular target: Non-receptor tyrosine-protein kinase TYK2 (Homo sapiens, UniProt P29597); assay: (§1) In Vitro Assays for Determining the Inhibition of Janus Kinases: The in vitro inhibition of recombinant human JAKs was determined as follow.Compounds were tested in LANTHASCREEN™ time-resolved fluorescence energy transfer (TR-FRET) enzymatic assays from Invitrogen. The human Janus kinase 1 (JAK1) used in the assay is the recombinant JAK1 catalytic domain (amino acids 866-1154) expressed and purified from insect cells (Invitrogen, Cat. No. PV4774). The human Janus kinase 2 (JAK2) used in the assay is the recombinant JAK2 catalytic domain (amino acids 808-1132) expressed and purified from insect cells (Invitrogen, Cat. No. PV4210). The human Janus kinase 3 (JAK3) used in the assay is the recombinant JAK3 catalytic domain (amino acids 781-1124) expressed and purified from insect cells (Invitrogen, Cat. No. PV3855). The human tyrosine kinase 2 (TYK2) used in the assay is the recombinant TYK2 catalytic domain (amino acids 833-1187) expressed and purified from insect cells (Invitrogen, Cat. No. PV4790). The substrate is a recombinant STAT1 expressed as a fusion with GFP (Green Fluorescent Protein) to act as a physiological substrate (Invitrogen, Cat. No. PV5211).Test compounds were prepared and diluted in DMSO in 3-fold serial dilutions for 10 doses to 100× of the final testing concentrations. The compounds were then further diluted to 4× by the kinase reaction buffer (Invitrogen, Cat. No. PV3189). The enzymatic reaction for compound testing was performed in a white 384-well polypropylene plate (Packard, Cat. No. 6005214) with a total reaction volume of 10 μL containing 440 ng/mL JAK1, 11 ng/mL JAK2, 400 ng/mL JAK3, or 200 ng/mL TYK2, 100 nM substrate, and 1 mM ATP. The assay started with loading 2.5 μL of JAK1, JAK2, JAK3, or TYK2 diluted in the kinase reaction buffer to wells, followed by addition of an equal volume of 4× compounds for 15-min incubation at room temperature for pre-treatment. The enzymatic reaction was initiated by addition of 5 μL of a mixture of the substrate and ATP prepared in the kinase reaction buffer. […]
[2] = molecular target: Tyrosine-protein kinase JAK1 (Homo sapiens, UniProt P23458); assay: as §1
[3] = molecular target: Tyrosine-protein kinase JAK2 (Homo sapiens, UniProt O60674); assay: as §1
Tyrosine-protein kinase JAK2, sequence (O60674 whole entry): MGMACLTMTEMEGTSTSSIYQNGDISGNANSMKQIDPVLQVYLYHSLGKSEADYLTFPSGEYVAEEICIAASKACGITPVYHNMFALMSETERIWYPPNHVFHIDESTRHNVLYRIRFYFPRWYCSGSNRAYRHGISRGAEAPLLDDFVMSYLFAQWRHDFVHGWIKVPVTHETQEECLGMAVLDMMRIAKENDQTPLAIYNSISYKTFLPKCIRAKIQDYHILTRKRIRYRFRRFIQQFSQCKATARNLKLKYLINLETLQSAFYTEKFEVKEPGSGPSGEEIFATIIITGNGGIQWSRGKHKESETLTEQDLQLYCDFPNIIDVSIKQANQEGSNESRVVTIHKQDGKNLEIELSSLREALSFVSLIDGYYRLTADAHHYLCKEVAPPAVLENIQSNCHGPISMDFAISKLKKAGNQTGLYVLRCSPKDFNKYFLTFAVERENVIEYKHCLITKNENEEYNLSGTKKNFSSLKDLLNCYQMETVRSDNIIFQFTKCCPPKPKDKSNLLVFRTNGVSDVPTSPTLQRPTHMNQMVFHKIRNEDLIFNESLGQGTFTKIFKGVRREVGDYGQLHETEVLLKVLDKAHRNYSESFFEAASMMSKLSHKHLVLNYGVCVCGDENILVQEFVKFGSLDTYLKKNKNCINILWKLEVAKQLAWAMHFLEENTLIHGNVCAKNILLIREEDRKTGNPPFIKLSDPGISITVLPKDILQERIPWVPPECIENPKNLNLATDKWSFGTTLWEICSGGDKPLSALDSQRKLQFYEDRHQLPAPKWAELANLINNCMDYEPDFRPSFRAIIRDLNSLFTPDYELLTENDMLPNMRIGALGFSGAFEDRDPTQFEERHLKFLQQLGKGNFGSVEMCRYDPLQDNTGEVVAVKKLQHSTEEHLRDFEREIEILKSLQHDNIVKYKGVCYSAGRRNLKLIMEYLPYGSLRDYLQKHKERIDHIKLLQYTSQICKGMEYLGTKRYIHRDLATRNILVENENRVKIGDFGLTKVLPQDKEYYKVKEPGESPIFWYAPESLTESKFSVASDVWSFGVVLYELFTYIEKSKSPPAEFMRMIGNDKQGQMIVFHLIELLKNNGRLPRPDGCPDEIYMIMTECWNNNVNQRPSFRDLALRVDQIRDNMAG

Tyrosine-protein kinase JAK1, sequence (P23458 whole entry): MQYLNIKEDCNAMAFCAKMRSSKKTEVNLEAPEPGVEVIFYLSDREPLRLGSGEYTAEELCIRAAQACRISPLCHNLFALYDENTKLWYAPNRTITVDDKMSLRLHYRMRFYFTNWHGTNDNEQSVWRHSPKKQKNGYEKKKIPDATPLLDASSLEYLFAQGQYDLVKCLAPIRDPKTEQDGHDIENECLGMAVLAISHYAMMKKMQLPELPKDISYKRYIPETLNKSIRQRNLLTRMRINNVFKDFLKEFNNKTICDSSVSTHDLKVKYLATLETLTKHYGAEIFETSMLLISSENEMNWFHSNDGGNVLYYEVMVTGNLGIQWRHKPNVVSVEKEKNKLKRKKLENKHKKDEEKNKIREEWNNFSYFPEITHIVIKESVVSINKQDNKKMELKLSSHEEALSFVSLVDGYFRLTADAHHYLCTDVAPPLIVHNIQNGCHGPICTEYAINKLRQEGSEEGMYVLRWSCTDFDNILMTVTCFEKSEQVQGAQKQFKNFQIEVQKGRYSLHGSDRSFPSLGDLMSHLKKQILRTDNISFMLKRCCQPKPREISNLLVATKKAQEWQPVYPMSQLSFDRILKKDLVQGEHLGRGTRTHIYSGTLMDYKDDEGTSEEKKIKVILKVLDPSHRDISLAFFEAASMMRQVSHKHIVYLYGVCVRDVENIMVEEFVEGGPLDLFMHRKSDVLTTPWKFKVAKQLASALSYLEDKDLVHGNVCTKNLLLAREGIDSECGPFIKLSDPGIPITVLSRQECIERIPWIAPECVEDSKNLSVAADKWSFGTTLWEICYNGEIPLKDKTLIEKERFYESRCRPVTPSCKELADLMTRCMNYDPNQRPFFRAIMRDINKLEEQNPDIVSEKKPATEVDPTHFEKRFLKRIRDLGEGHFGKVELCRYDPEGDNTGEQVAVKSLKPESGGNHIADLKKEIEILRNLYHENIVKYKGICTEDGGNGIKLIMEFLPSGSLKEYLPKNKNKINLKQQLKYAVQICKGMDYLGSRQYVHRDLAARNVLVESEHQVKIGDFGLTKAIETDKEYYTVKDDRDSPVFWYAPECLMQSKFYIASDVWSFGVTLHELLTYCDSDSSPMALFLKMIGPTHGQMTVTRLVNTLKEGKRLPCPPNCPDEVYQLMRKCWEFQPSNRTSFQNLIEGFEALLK
Non-receptor tyrosine-protein kinase TYK2, sequence (P29597 whole entry, the tested form may be a part): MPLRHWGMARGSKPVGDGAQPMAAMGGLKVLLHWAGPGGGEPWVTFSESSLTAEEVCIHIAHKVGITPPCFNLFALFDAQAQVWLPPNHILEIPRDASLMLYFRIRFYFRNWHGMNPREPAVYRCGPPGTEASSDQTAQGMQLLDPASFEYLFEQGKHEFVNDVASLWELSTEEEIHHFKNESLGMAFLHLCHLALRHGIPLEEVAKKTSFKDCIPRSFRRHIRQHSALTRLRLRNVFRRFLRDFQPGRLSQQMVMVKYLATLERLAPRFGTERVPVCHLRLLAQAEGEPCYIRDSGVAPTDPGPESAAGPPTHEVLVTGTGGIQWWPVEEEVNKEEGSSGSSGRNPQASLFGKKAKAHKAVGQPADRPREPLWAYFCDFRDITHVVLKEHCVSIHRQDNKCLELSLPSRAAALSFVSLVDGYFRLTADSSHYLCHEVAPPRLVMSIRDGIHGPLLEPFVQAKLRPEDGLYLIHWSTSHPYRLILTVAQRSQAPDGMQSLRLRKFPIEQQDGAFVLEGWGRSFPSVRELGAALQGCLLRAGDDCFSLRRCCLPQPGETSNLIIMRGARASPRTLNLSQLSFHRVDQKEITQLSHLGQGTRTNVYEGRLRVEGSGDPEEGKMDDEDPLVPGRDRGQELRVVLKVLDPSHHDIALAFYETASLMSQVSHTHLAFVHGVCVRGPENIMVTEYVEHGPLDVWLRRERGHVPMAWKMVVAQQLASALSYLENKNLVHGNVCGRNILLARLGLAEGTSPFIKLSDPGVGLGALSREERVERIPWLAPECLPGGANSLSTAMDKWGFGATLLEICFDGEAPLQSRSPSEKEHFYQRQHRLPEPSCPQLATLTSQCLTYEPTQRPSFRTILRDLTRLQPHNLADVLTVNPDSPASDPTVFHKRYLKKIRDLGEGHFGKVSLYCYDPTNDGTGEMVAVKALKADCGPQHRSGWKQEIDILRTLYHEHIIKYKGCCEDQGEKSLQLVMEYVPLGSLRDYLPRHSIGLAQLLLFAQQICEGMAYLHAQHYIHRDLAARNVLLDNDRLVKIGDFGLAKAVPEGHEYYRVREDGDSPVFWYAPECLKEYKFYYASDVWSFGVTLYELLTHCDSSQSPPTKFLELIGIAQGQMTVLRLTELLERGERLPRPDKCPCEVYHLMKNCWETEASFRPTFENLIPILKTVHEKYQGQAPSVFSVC

IC50 [1]: > 5 µM
IC50 [2]: > 5 µM
IC50 [3]: > 5 µM
SMILES: N#CC1(c2ccc(-c3cccc4nc(NC(=O)C5CC5)cn34)cc2)CC1
